One test addresses T1, BRD4 (Homo sapiens (Human), UniProt O60885). Description: biochemical. The following applies: BRD4 IC50 (μM gmean).
Take `COC(=O)N1c2ccc3c(nc(Cc4ccccc4)n3CCC(N)=O)c2CC[C@@H]1C` [Example 289, methyl (7S)-2-benzyl-3-(2-carbamoylethyl)-7-methyl-3H,6H,7H,8H,9H-imidazo[4,5-f]quinoline-6-carboxylate]: the 50% inhibitory concentration (IC50) (commonly the concentration that gives 50% inhibition) was 1 to 1000 µM.

The target of another test is T1, BRD4.
Test: not given
The following applies: read-out: BRD4 IC50 (μM gmean).
`COC(=O)N1c2ccc3c(nc(CC(C(=O)O)c4ccc(C(C)C)cc4)n3C3CCCOC3)c2CC[C@@H]1C` (stereo partly shown) [Example 888]: the 50% inhibitory concentration (IC50) was in the range of 1 to 1000 µM. As to `COC(=O)N1c2ccc3c(nc(CC(C(=O)O)c4ccccc4)n3C3COCC(F)(F)C3)c2CC[C@@H]1C` (stereo partly shown) [Example 891], the IC50 fell in the range of 1 to 1000 µM. With `COC(=O)N1c2ccc3c(nc(CC4CCN(C(C)=O)CC4)n3[C@@H]3CCC[C@@H](C(=O)O)C3)c2CC[C@@H]1C` [Example 892], the IC50 was 1 to 1000 µM. Consider `COC(=O)N1c2ccc3c(nc(C(C)Cc4cnn(C)c4)n3C3CCC(C(=O)O)CC3)c2CC[C@@H]1C` (stereo partly shown) [Example 894], for which the IC50 is 1 to 1000 µM. `COC(=O)N1c2ccc3c(nc(S(=O)(=O)c4ccccc4)n3[C@H]3CC[C@H](C(=O)O)CC3)c2CC[C@@H]1C` [Example 895]: the 50% inhibitory concentration (IC50) was 1 to 1000 µM. On to `COC(=O)N1c2ccc3c(nc(CC(=O)N4CCCCC4)n3[C@@H]3CCC[C@@H](C(=O)O)C3)c2CC[C@@H]1C` [Example 896], for which the concentration for half-maximal inhibition (IC50) fell in the range of 1 to 1000 µM. For `COC(=O)N1c2ccc3c(nc(CC(C(=O)O)c4ccc(Cl)cc4)n3C3CCCOC3)c2CC[C@@H]1C` (stereo partly shown) [Example 900], the half-maximal inhibitory concentration (IC50) was 1 to 1000 µM. In the case of `COC(=O)N1c2ccc3c(nc(CC(C(=O)O)c4ccc(C(F)F)cc4)n3C3CCCOC3)c2CC[C@@H]1C` (stereo partly shown) [Example 901], the IC50 fell in the range of 1 to 1000 µM.

In the case of `COC(=O)N1c2ccc3c(nc(CC(C(=O)O)c4ccc(C(F)F)cc4)n3C3CCCOC3)c2CC[C@@H]1C` (stereo partly shown) [Example 902], the half-maximal inhibitory concentration (IC50) lay in the range of 1 to 1000 µM.

On to `COC(=O)N1c2ccc3c(nc(CC(C(=O)O)c4ccccc4)n3C3COCC(F)(F)C3)c2CC[C@@H]1C` (stereo partly shown) [Example 903], for which the IC50 was in the range of 1 to 1000 µM. On to `COC(=O)N1c2ccc3c(nc(CC(C(=O)O)c4ccc(C5CC5)cc4)n3C3CCCOC3)c2CC[C@@H]1C` (stereo partly shown) [Example 904], for which the concentration for half-maximal inhibition (IC50) fell in the range of 1 to 1000 µM. Consider `COC(=O)N1c2ccc3c(nc(CC(C(=O)O)c4ccccc4)n3-c3cccc(C#N)c3)c2CC[C@@H]1C` (stereo partly shown) [Example 905], for which the IC50 fell in the range of 1 to 1000 µM.

`COC(=O)N1c2ccc3c(nc([C@H](C)Cn4cc(Cl)cn4)n3[C@H]3CC[C@H](C(=O)O)CC3)c2CC[C@@H]1C` [Example 907]: the IC50 was in the range of 1 to 1000 µM. In the case of `COC(=O)N1c2ccc3c(nc(Oc4ccccc4)n3[C@H]3CC[C@H](C(=O)O)CC3)c2CC[C@@H]1C` [Example 908], the half-inhibitory concentration (IC50) is 1 to 1000 µM. For `COC(=O)N1c2ccc3c(nc(Nc4c(C)n[nH]c4C)n3[C@H]3CC[C@H](C(=O)O)CC3)c2CC[C@@H]1C` [Example 909], the IC50 lay in the range of 1 to 1000 µM. The same measure, in the same setting: to `COC(=O)N1c2ccc3c(nc(C(C)Cn4cc(C(F)F)cn4)n3C3CCC(C(=O)O)CC3)c2CC[C@@H]1C` (stereo partly shown) [Example 912] belongs 1 to 1000 µM; to `COC(=O)N1c2ccc3c(nc(CC(C(=O)O)c4ccc(C)cc4)n3C3COCC(F)(F)C3)c2CC[C@@H]1C` (stereo partly shown) [Example 913], 1 to 1000 µM; to `COC(=O)N1c2ccc3c(nc(CC(C(=O)O)c4ccccc4)n3-c3ccc(C#N)cc3)c2CC[C@@H]1C` (stereo partly shown) [Example 914], 1 to 1000 µM. Still for that read-out and setting: with `COC(=O)N1c2ccc3c(nc(Nc4cc(C)nn4C)n3[C@H]3CC[C@H](C(=O)O)CC3)c2CC[C@@H]1C` [Example 915] the figure was 1 to 1000 µM; with `COC(=O)N1c2ccc3c(nc(Nc4cc(C)nn4C)n3[C@@H]3CCC[C@@H](C(=O)O)C3)c2CC[C@@H]1C` [Example 916], 1 to 1000 µM; with `COC(=O)N1c2ccc3c(nc(C(C)Cn4cccn4)n3C3CCC(C(=O)O)CC3)c2CC[C@@H]1C` (stereo partly shown) [Example 917], 1 to 1000 µM. For the compound `COC(=O)N1c2ccc3c(nc(C(C)Cn4cc(C)cn4)n3C3CCC(C(=O)O)CC3)c2CC[C@@H]1C` (stereo partly shown) [Example 918], the half-maximal inhibitory concentration (IC50) was in the range of 1 to 1000 µM. In the case of `COC(=O)N1c2ccc3c(nc(CC(C(=O)O)c4ccc(C(F)F)cc4)n3C3COCC(F)(F)C3)c2CC[C@@H]1C` (stereo partly shown) [Example 920], the IC50 lay within 1 to 1000 µM. `COC(=O)N1c2ccc3c(nc(C(=O)NC4CCCC4)n3[C@@H]3CCC[C@@H](C(=O)O)C3)c2CC[C@@H]1C` [Example 922]: the IC50 was in the range of 1 to 1000 µM. For the compound `COC(=O)N1c2ccc3c(nc(C(=O)N(C)C4CCCC4)n3[C@@H]3CCC[C@@H](C(=O)O)C3)c2CC[C@@H]1C` [Example 923], the IC50 was in the range of 1 to 1000 µM. Consider `COC(=O)N1c2ccc3c(nc(C(C)Cn4cc(Cl)cn4)n3C3CCS(=O)(=O)C3)c2CC[C@@H]1C` (stereo partly shown) [Example 926], for which the IC50 fell in the range of 1 to 1000 µM. For the compound `COC(=O)N1c2ccc3c(nc(CC(C(=O)O)c4ccc(C)cc4)n3C3COCC(F)(F)C3)c2CC[C@@H]1C` (stereo partly shown) [Example 927], the 50% inhibitory concentration (IC50) is 1 to 1000 µM. On to `COC(=O)N1c2ccc3c(nc(C(C)Cc4cnn(C)c4)n3C3CCNCC3)c2CC[C@@H]1C` (stereo partly shown) [Example 928], for which the IC50 was 1 to 1000 µM. `COC(=O)N1c2ccc3c(nc(C(C)Cn4cc(Cl)cn4)n3C3CCS(=O)(=O)C3)c2CC[C@@H]1C` (stereo partly shown) [Example 930]: the IC50 was 1 to 1000 µM. On the same count and under the same terms, with `COC(=O)N1c2ccc3c(nc(Nc4ccncc4F)n3[C@H]3CC[C@H](C(=O)O)CC3)c2CC[C@@H]1C` [Example 933] the figure was 1 to 1000 µM; with `COC(=O)N1c2ccc3c(nc(C(=O)N(C)c4ccccc4)n3[C@@H]3CCC[C@@H](C(=O)O)C3)c2CC[C@@H]1C` [Example 934], 1 to 1000 µM.

For `COC(=O)N1c2ccc3c(nc(CCn4cccn4)n3CCN3CCNCC3)c2CC[C@@H]1C` [Example 935], the IC50 was 1 to 1000 µM.

As for `COC(=O)N1c2ccc3c(nc(CC(C(=O)O)c4ccc(C(F)F)cc4)n3C3COCC(F)(F)C3)c2CC[C@@H]1C` (stereo partly shown) [Example 937], the IC50 fell in the range of 1 to 1000 µM.

Regarding `COC(=O)N1c2ccc3c(nc(C(=O)N(C)C4CCCCC4)n3[C@@H]3CCC[C@@H](C(=O)O)C3)c2CC[C@@H]1C` [Example 939], the IC50 was 1 to 1000 µM.

Turning to `COC(=O)N1c2ccc3c(nc(Nc4ccncc4F)n3[C@@H]3CCC[C@@H](C(=O)O)C3)c2CC[C@@H]1C` [Example 941], the IC50 fell in the range of 1 to 1000 µM.

Consider `COC(=O)N1c2ccc3c(nc(Nc4ccnc(C)c4)n3[C@H]3CC[C@H](C(=O)O)CC3)c2CC[C@@H]1C` [Example 943], for which the IC50 is 1 to 1000 µM. Still for that read-out and setting: to `COC(=O)N1c2ccc3c(nc(C(C)Cn4cccn4)n3C3CCS(=O)(=O)CC3)c2CC[C@@H]1C` (stereo partly shown) [Example 946] belongs 1 to 1000 µM; to `COC(=O)N1c2ccc3c(nc(C(C)Cc4ccccc4)n3C3CCNCC3)c2CC[C@@H]1C` (stereo partly shown) [Example 947], 1 to 1000 µM; to `COC(=O)N1c2ccc3c(nc(C(=O)Nc4ccccc4)n3[C@@H]3CCC[C@@H](C(=O)O)C3)c2CC[C@@H]1C` [Example 948], 1 to 1000 µM.

With `COC(=O)N1c2ccc3c(nc(C(C)Cn4cc(C)cn4)n3C3CCS(=O)(=O)C3)c2CC[C@@H]1C` (stereo partly shown) [Example 949], the concentration for half-maximal inhibition (IC50) lay in the range of 1 to 1000 µM. The same measure, in the same setting: to `COC(=O)N1c2ccc3c(nc(C(C)Cc4cnn(C)c4)n3C3CCNCC3)c2CC[C@@H]1C` (stereo partly shown) [Example 951] belongs 1 to 1000 µM; to `COC(=O)N1c2ccc3c(nc(C(C)Cn4cccn4)n3C3CCS(=O)(=O)C3)c2CC[C@@H]1C` (stereo partly shown) [Example 955], 1 to 1000 µM. Turning to `COC(=O)N1c2ccc3c(nc(C(C)Cn4cccn4)n3C3CCS(=O)(=O)C3)c2CC[C@@H]1C` (stereo partly shown) [Example 956], the IC50 lay in the range of 1 to 1000 µM. As for `COC(=O)N1c2ccc3c(nc(C(C)Cn4cc(C)cn4)n3C3CCS(=O)(=O)C3)c2CC[C@@H]1C` (stereo partly shown) [Example 958], the half-inhibitory concentration (IC50) lay within 1 to 1000 µM. Same read-out and setting: with `COC(=O)N1c2ccc3c(nc(C(=O)Nc4ccccc4Cl)n3[C@@H]3CCC[C@@H](C(=O)O)C3)c2CC[C@@H]1C` [Example 961] the figure was 1 to 1000 µM.
